These results are taken from US6972296B2, “Carboxylic acid derivatives that inhibit the binding of integrins to their receptors” (Encysive Pharmaceuticals Inc., priority 1999, dated 2005).

This experiment addresses T1, α4β1 integrin (Homo sapiens, UniProt P05556+P13612).
T1 construct: endogenous in cells; host or cells: Ramos cells
The experiment in a line: Adhesion of calcein-labeled Ramos cells to CS1 (fibronectin) peptide conjugated ovalbumin. In kind it is cell-based. As to conditions: Table 5; Ramos cell adhesion to CS1 conjugated ovalbumin; dose required to give 50% inhibition. The method, boiled down:
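Plates bearing CS1 fibronectin peptide coupled to ovalbumin (0.5 μg/ml coat, 3% BSA block) received calcein-labelled Ramos cells plus compound (100 μM stated) for 30 min at 37 °C. Buffer was TBS pH 7.5 with 1 mM Mg2+, Ca2+, Mn2+; bound cells quantified by fluorescence after lysis; […].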

T1 sequence (P13612 34-1032): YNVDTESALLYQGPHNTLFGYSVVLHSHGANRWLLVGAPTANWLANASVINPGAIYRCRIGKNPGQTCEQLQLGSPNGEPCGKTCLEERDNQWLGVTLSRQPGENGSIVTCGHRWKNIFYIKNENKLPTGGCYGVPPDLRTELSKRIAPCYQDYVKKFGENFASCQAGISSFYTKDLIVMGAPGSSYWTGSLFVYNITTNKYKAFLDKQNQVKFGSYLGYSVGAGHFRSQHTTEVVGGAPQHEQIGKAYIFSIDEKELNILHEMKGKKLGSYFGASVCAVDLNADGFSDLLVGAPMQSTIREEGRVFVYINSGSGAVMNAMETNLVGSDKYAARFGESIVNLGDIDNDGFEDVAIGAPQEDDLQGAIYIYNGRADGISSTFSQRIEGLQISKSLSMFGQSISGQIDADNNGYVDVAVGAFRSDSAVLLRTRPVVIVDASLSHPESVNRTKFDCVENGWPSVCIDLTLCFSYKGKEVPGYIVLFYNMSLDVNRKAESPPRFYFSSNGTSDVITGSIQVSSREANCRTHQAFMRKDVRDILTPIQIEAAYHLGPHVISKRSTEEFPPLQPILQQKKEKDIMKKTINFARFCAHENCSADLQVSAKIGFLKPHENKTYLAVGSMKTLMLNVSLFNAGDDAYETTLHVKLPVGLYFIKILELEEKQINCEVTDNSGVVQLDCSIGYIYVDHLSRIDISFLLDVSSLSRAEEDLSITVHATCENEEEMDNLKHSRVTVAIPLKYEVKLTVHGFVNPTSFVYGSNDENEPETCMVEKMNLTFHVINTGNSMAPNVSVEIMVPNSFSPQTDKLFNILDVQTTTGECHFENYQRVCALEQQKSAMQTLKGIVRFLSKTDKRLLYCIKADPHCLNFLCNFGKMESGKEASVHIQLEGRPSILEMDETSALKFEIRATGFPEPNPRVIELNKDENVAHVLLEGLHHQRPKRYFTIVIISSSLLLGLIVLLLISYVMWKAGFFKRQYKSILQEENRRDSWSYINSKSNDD
T1 sequence (P05556 21-798): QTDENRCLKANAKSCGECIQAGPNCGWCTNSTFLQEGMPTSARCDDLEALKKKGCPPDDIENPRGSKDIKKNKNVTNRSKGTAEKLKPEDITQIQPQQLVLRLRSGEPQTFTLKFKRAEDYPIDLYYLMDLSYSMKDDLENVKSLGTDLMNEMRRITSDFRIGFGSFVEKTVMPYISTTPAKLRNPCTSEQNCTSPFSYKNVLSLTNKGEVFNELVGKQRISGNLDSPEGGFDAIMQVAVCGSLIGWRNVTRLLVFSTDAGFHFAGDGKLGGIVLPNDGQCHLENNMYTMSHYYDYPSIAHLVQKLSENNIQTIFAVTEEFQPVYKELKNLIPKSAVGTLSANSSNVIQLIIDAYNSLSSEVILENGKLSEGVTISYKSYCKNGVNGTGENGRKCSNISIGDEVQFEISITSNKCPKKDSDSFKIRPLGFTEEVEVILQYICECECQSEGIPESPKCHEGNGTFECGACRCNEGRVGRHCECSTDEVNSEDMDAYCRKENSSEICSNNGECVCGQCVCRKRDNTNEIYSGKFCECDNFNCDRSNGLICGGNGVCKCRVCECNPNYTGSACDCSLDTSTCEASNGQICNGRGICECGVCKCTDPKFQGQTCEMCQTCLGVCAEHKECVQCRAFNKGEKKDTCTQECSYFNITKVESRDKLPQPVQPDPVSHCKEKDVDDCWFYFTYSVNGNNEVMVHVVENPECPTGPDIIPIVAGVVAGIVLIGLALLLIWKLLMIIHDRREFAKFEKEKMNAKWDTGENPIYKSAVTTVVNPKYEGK

On to `O=C(O)CC(NC(=O)Nc1c(O)ccn(Cc2ccccc2Cl)c1=O)c1cccc2ccccc12` (stereo not shown), for which the IC50 is 200 nM.

With `Cc1cn(Cc2ccccc2Cl)c(=O)c(NC(=O)NC(CC(=O)O)c2ccc3ccccc3c2)c1O` (stereo not shown), the IC50 is 30 nM. Take `Cc1ccc([C@@H](CC(=O)O)NC(=O)Nc2c(O)ccn(Cc3ccccc3Cl)c2=O)cc1`: the IC50 is 300 nM. `O=C(O)C[C@@H](Cc1ccccn1)NC(=O)Nc1c(O)ccn(Cc2ccccc2Cl)c1=O`: the IC50 was 225 nM.

For `C[C@H](CC(=O)O)NC(=O)Nc1c(O)ccn(Cc2ccccc2Cl)c1=O`, the IC50 was 190 nM.

As for `O=C(O)C[C@H](NC(=O)Nc1c(O)ccn(Cc2ccccc2Cl)c1=O)c1cc(C(F)(F)F)cc(C(F)(F)F)c1`, the IC50 was 220 nM. As for `CCOc1ccc([C@H](CC(=O)O)NC(=O)Nc2c(O)c(C)c(C)n(Cc3c(C)cccc3Cl)c2=O)cc1OCC`, the figure is 4 nM. As for `CSc1ccc(Cl)c(Cn2ccc(O)c(NC(=O)N[C@@H](CC(=O)O)c3ccc(C)cc3)c2=O)c1`, the figure is 15 nM; as for `Cc1ccc([C@H](CC(=O)O)NC(=O)Nc2cccn(Cc3cc(O)ccc3Cl)c2=O)cc1`, 250 nM. As for `COc1ccc(Cl)c(Cn2cccc(NC(=O)N[C@@H](CC(=O)O)c3ccc(C)cc3)c2=O)c1`, the figure is 90 nM; as for `Cc1ccc([C@H](CC(=O)O)NC(=O)Nc2cccn(Cc3c(O)cccc3Cl)c2=O)cc1`, 100 nM. With `Cc1ccc([C@H](CC(=O)O)NC(=O)Nc2c(O)c(C)c(C)n(Cc3c(C)cccc3Cl)c2=O)cc1`, the IC50 is 30 nM. For `COc1cc([C@H](CC(=O)O)NC(=O)Nc2c(O)c(C)c(C)n(Cc3c(C)cccc3Cl)c2=O)ccc1C` the value was 25 nM; for `CCOc1cccc([C@H](CC(=O)O)NC(=O)Nc2c(O)c(C)c(C)n(Cc3c(C)cccc3Cl)c2=O)c1`, 15 nM. For `COc1cc(C)c([C@H](CC(=O)O)NC(=O)Nc2c(O)ccn(Cc3ccccc3Cl)c2=O)cc1C` the value was 80 nM.

As for `CCCCOc1ccc([C@H](CC(=O)O)NC(=O)Nc2c(O)ccn(Cc3ccccc3Cl)c2=O)cc1OCCCC`, the IC50 is 25 nM. As for `CCc1cccc([C@H](CC(=O)O)NC(=O)Nc2c(O)ccn(Cc3ccccc3Cl)c2=O)c1`, the figure is 15 nM; as for `COc1ccc([C@H](CC(=O)O)NC(=O)Nc2c(O)ccn(Cc3ccccc3Cl)c2=O)cc1F`, 15 nM; as for `Cc1ccc(C[C@@H](CC(=O)O)NC(=O)Nc2c(O)ccn(Cc3ccccc3Cl)c2=O)cc1`, 30000 nM.

Regarding `COc1cc([C@H](CC(=O)O)NC(=O)Nc2c(O)c(C)cn(Cc3ccccc3Cl)c2=O)ccc1C`, the IC50 is 20 nM.

In the case of `COc1cc([C@H](CC(=O)O)NC(=O)Nc2c(O)c(C)c(C)n(Cc3ccccc3Cl)c2=O)ccc1C`, the half-inhibitory concentration (IC50) was 15 nM. As for `Cc1ccc([C@H](CC(=O)O)NC(=O)Nc2c(O)ccn(Cc3ccc(Cl)cc3Cl)c2=O)cc1`, the figure is 60 nM.

For the compound `Cc1ccc([C@H](CC(=O)O)NC(=O)Nc2c(O)ccn(Cc3cc(F)ccc3F)c2=O)cc1`, the IC50 was 15 nM. For `Cc1ccc([C@H](CC(=O)O)NC(=O)Nc2c(O)ccn(Cc3c(C)cccc3C)c2=O)cc1` the value was 35 nM; for `Cc1ccc([C@H](CC(=O)O)NC(=O)Nc2cccn(Cc3cccc(C(C)(C)C)c3O)c2=O)cc1`, 4000 nM. As for `COc1c(Cn2cccc(NC(=O)N[C@@H](CC(=O)O)c3ccc(C)cc3)c2=O)cccc1C(C)(C)C`, the figure is 2500 nM.

As for `CCCc1cn(Cc2ccc(Cl)cc2)c(=O)c(NC(=O)N[C@@H](CC(=O)O)c2ccc(OCC)c(OCC)c2)c1O`, the IC50 is 15 nM. Regarding `CCCc1cn(Cc2ccc(Cl)cc2)c(=O)c(NC(=O)N[C@@H](CC(=O)O)c2cccc(OCC)c2)c1O`, the IC50 is 30 nM.

For `Cc1ccc([C@H](CC(=O)O)NC(=O)Nc2cccn(Cc3ccc(F)cc3)c2=O)cc1`, the IC50 was 2000 nM. As for `Cc1ccc([C@H](CC(=O)O)NC(=O)Nc2c(O)ccn(Cc3ccccc3S(C)(=O)=O)c2=O)cc1`, the figure is 35 nM; as for `COc1ccccc1Cn1ccc(O)c(NC(=O)N[C@@H](CC(=O)O)c2ccc(C)cc2)c1=O`, 80 nM.
